# Measurements as given in patent publication US4113714A, “[Des-Ala^1, Gly^2 -desamino-Cys^3 ]somatostatin” (American Home Products Corporation, priority 1975, dated 1978).
# Tested on: cultured rat pituitary cells
# Assay: in vitro inhibition of growth hormone secretion by cultured rat pituitary cells (radioimmunoassay)
# Format: cell-based
# Conditions: three hours at 37° C in Eagles medium, control 441±12
# Description: The activity of the undecapeptide of this invention was established in both in vitro and in vivo testing procedures, employing modifications of the techniques disclosed by Penso et al., Tissue Culture in Biological Research, Elsevier, 1963, p. 98; Berson et al., Metabolism, 13, 1135(1964).
# The in vitro tests were conducted by covering cultured rat pituitary cells contained in petri dishes with five milliliter portions of the undecapeptide, as its diacetate salt, in Eagles medium for three hours at 37° C. Three Petri dishes were employed for each solution concentration. The amount of growth hormone produced by the cultured pituitary cells is then compared with growth hormone produced by non-treated cells prepared in identical manner, via growth hormone radioimmunoassay. The difference between the growth hormone produced by treated and non-treated pituitary cells establishes the amount of inhibition by the compound under study.
# The cultured pituitary cells are prepared by excising and mincing rat pituitary glands followed by enzymatic separation of the cells (collagenase and hyaluronidase) and culture on synthetic nutrient media. When the cells attach themselves to the bottom of the plastic petri dish and cover the nutrient surface, they are washed with Eagles medium containing only inorganic salts, glucose and antibiotics in which state they are ready for use as above described.
# The activity of the undecapeptide of this invention was compared in vitro with somatostatin with the following results in which the concentration valves given are in nanograms/milliliter: […]
smiles,measurement,setting,value
C[C@H](N)C(=O)NCC(=O)N[C@H]1CSSC[C@@H](C(=O)O)NC(=O)[C@H](CO)NC(=O)[C@H]([C@@H](C)O)NC(=O)[C@H](Cc2ccccc2)NC(=O)[C@H]([C@@H](C)O)NC(=O)[C@H](CCCCN)NC(=O)[C@H](Cc2c[nH]c3ccccc23)NC(=O)[C@H](Cc2ccccc2)NC(=O)[C@H](Cc2ccccc2)NC(=O)[C@H](CC(N)=O)NC(=O)[C@H](CCCCN)NC1=O [somatostatin],Growth Hormone Secreted,compound concentration 10 ng/ml,260 ± 8 ng/mL
same,Growth Hormone Secreted,compound concentration 50 ng/ml,271 ± 22 ng/mL
same,Growth Hormone Secreted,compound concentration 100 ng/ml,250 ± 13 ng/mL
